Results from patent US10202360B2 (CELGENE QUANTICEL RESEARCH, INC., priority 2016, dated 2019).

Biological target: CREBBP (Homo sapiens (Human), UniProt Q92793)
Assay: In vitro enzyme inhibition assay - CREBBP inhibition (AlphaScreen, biotinylated H4-tetraacetyl peptide)
Assay type: binding
Details: Table 28; AlphaScreen, H4-tetraacetyl peptide
Procedure, shortened: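 His-tagged CREBBP expressed in E. coli (50 nM final) incubated with biotinylated H4K5/8/12/16(Ac) peptide (20 nM final) in HEPES pH 7.3 buffer, 0.4% DMSO, 20 min at room temperature.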

Chain of CREBBP (Q92793 1081-1197): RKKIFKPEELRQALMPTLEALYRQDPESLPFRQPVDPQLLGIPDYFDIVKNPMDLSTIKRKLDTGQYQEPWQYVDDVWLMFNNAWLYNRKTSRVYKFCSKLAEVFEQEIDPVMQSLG

SMILES	IC50 [nM]
Cn1cc(-c2cc3nc(n2)Oc2cc(ccc2Cl)OCC=CCCS(=O)(=O)N3)ccc1=O [Example 360, 5-(36-chloro-10,10-dioxido-2,4-dioxa-10-thia-11-aza-1(2,4)-pyrimidina-3(1,3)-benzenacycloundecaphan-6-en-1^6-yl)-1-methylpyridin-2(1H)-one]	< 500
CCCCS(=O)(=O)Nc1cc(-c2ccc(=O)n(C)c2)nc(Oc2c(F)cccc2C2CC2)n1 [Example 240, Butane-1-sulfonic acid [2-(2-cyclopropyl-6-fluoro-phenoxy)-6-(1-methyl-6-oxo-1,6-dihydro-pyridin-3-yl)-pyrimidin-4-yl]-amide]	< 500
Cn1cc(-c2cc3nc(n2)Oc2cccc(c2)OCCCCCCS(=O)(=O)N3)ccc1=O [Example 359, 5-(11,11-dioxido-2,4-dioxa-11-thia-12-aza-1(2,4)-pyrimidina-3(1,3)-benzenacyclododecaphane-1^6-yl)-1-methylpyridin-2(1H)-one]	< 500
CCC[C@H](C)Nc1cc(-c2ccc(=O)n(C)c2)nc(Oc2c(C)cccc2C#N)n1 [Example 321, (S)-3-Methyl-2-[4-(1-methyl-butylamino)-6-(1-methyl-6-oxo-1,6-dihydro-pyridin-3-yl)-pyrimidin-2-yloxy]-benzonitrile]	< 500
Cc1cc(-c2cc(NS(=O)(=O)C(C)C)nc(Oc3cc(Cl)ccc3Cl)n2)cn(C)c1=O [Example 1, Propane-2-sulfonic acid [2-(2,5-dichloro-phenoxy)-6-(1,5-dimethyl-6-oxo-1,6-dihydro-pyridin-3-yl)-pyrimidin-4-yl]-amide]	< 500
COCCn1cc(-c2cc(NS(=O)(=O)C(C)C)nc(Oc3ccc(F)cc3F)n2)cc(C)c1=O [Example 53, Propane-2-sulfonic acid {2-(2,4-difluoro-phenoxy)-6-[1-(2-methoxy-ethyl)-5-methyl-6-oxo-1,6-dihydro-pyridin-3-yl]-pyrimidin-4-yl}-amide]	500 to 5000
CCCCS(=O)(=O)Nc1cc(-c2ccc(=O)n(C)c2)nc(OC2CCOCC2)n1 [Example 353, N-(6-(1-methyl-6-oxo-1,6-dihydropyridin-3-yl)-2-((tetrahydro-2H-pyran-4-yl)oxy)pyrimidin-4-yl)butane-1-sulfonamide]	< 500
CCCS(=O)(=O)Nc1cc(Oc2c(C)cccc2C#N)nc(-c2cc(C)c(=O)n(C)c2)n1 [Example 129, Propane-1-sulfonic acid [6-(2-cyano-6-methyl-phenoxy)-2-(1,5-dimethyl-6-oxo-1,6-dihydro-pyridin-3-yl)-pyrimidin-4-yl]-amide]	< 500
CCS(=O)(=O)Nc1cc(-c2ccc(=O)n(C)c2)nc(OC2CCCCC2)n1 [Example 246, Ethanesulfonic acid [2-cylcohexyloxy-6-(1-methyl-6-oxo-1,6-dihydro-pyridin-3-yl)-pyrimidin-4-yl]-amide]	< 500
CCCCS(=O)(=O)Nc1cc(-c2cc(OC)c(=O)n(C)c2)nc(Oc2c(C)cccc2C)n1 [Example 106, N-(2-(2,6-dimethylphenoxy)-6-(5-methoxy-1-methyl-6-oxo-1,6-dihydropyridin-3-yl)pyrimidin-4-yl)butane-1-sulfonamide]	< 500
Cc1ccc(F)c(Oc2nc(NS(=O)(=O)C(C)C)cc(-c3ccc(=O)n(C)c3)n2)c1Cl [Example 256, Propane-2-sulfonic acid [2-(2-chloro-6-fluoro-3-methyl-phenoxy)-6-(1-methyl-6-oxo-1,6-dihydro-pyridin-3-yl)-pyrimidin-4-yl]-amide]	< 500
CCCCS(=O)(=O)Nc1cc(-c2cc(C)c(=O)n(C)c2)nc(Oc2ccc(F)cc2F)n1 [Example 64, N-(2-(2,4-difluorophenoxy)-6-(1,5-dimethyl-6-oxo-1,6-dihydropyridin-3-yl)pyrimidin-4-yl)butane-1-sulfonamide]	< 500
Cc1cc(F)ccc1Oc1nc(NS(=O)(=O)C(C)C)cc(-c2cc(C)c(=O)n(C)c2)n1 [Example 67, N-(6-(1,5-dimethyl-6-oxo-1,6-dihydropyridin-3-yl)-2-(4-fluoro-2-methylphenoxy)pyrimidin-4-yl)propane-2-sulfonamide]	< 500
CCCS(=O)(=O)Nc1cc(-c2ccc(=O)n(C)c2)nc(Oc2c(F)cccc2C2CC2)n1 [Example 239, Propane-1-sulfonic acid [2-(2-cyclopropyl-6-fluoro-phenoxy)-6-(1-methyl-6-oxo-1,6-dihydro-pyridin-3-yl)-pyrimidin-4-yl]-amide]	< 500
Cc1ccc(F)c(Oc2nc(NS(=O)(=O)CCC(C)C)cc(-c3ccc(=O)n(C)c3)n2)c1Cl [Example 265, 3-Methyl-butane-1-sulfonic acid [2-(2-chloro-6-fluoro-3-methyl-phenoxy)-6-(1-methyl-6-oxo-1,6-dihydro-pyridin-3-yl)-pyrimidin-4-yl]-amide]	< 500
Cc1cc(-c2cc(NC(=O)CC(C)C)nc(Oc3ccc(F)cc3F)n2)cn(C)c1=O [Example 77, N-(2-(2,4-difluorophenoxy)-6-(1,5-dimethyl-6-oxo-1,6-dihydropyridin-3-yl)pyrimidin-4-yl)-3-methylbutanamide]	500 to 5000

SMILES	IC50 [nM]
Cc1cccc(F)c1Oc1nc(-c2cc(C)c(=O)n(C)c2)cc(N(C)Cc2ccccc2)n1 [Example 297, 5-[6-(Benzyl-methyl-amino)-2-(2-fluoro-6-methyl-phenoxy)-pyrimidin-4-yl]-1,3-dimethyl-1H-pyridin-2-one]	< 500
Cc1cccc(Cl)c1Oc1nc(NS(=O)(=O)CCC2CC2)cc(-c2ccc(=O)n(C)c2)n1 [Example 266, 2-Cyclopropyl-ethanesulfonic acid [2-(2-chloro-6-methyl-phenoxy)-6-(1-methyl-6-oxo-1,6-dihydro-pyridin-3-yl)-pyrimidin-4-yl]-amide]	< 500
CCCCS(=O)(=O)Nc1cc(-c2cc(C)c(=O)n(C)c2)nc(Oc2cnn(C)c2)n1 [Example 74, N-(6-(1,5-dimethyl-6-oxo-1,6-dihydropyridin-3-yl)-2-((1-methyl-1H-pyrazol-4-yl)oxy)pyrimidin-4-yl)butane-1-sulfonamide]	< 500
CCCS(=O)(=O)Nc1cc(-c2ccc(=O)n(C)c2)nc(Oc2c(F)cccc2OC)n1 [Example 235, Propane-1-sulfonic acid [2-(2-fluoro-6-methoxy-phenoxy)-6-(1-methyl-6-oxo-1,6-dihydro-pyridin-3-yl)-pyrimidin-4-yl]-amide]	< 500
Cn1cc(-c2cc(NS(=O)(=O)CCC3CC3)nc(Oc3c(F)cccc3Cl)n2)ccc1=O [Example 268, 2-Cyclopropyl-ethanesulfonic acid [2-(2-chloro-6-fluoro-phenoxy)-6-(1-methyl-6-oxo-1,6-dihydro-pyridin-3-yl)-pyrimidin-4-yl]-amide]	< 500
Cc1cc(-c2cc(NS(=O)(=O)C(C)C)nc(Oc3ccc(F)cc3F)n2)cn(C)c1=O [Example 62, N-(2-(2,4-difluorophenoxy)-6-(1,5-dimethyl-6-oxo-1,6-dihydropyridin-3-yl)pyrimidin-4-yl)propane-2-sulfonamide]	< 500
Cc1cc(-c2cc(NS(=O)(=O)C(C)C)nc(Oc3ccc(F)cc3F)n2)cn(CC(F)(F)F)c1=O [Example 52, Propane-2-sulfonic acid {2-(2,4-difluoro-phenoxy)-6-[5-methyl-6-oxo-1-(2,2,2-trifluoro-ethyl)-1,6-dihydro-pyridin-3-yl]-pyrimidin-4-yl}-amide]	500 to 5000
COc1ccc(Oc2nc(NS(=O)(=O)C(C)C)cc(-c3cc(C)c(=O)n(C)c3)n2)cc1Cl [Example 68, N-(2-(3-chloro-4-methoxyphenoxy)-6-(1,5-dimethyl-6-oxo-1,6-dihydropyridin-3-yl)pyrimidin-4-yl)propane-2-sulfonamide]	< 500
Cc1cc(-c2cc(NS(=O)(=O)C(C)C)nc(Oc3c(F)cccc3F)n2)cn(C)c1=O [Example 17, Propane-2-sulfonic acid [2-(2,6-difluoro-phenoxy)-6-(1,5-dimethyl-6-oxo-1,6-dihydro-pyridin-3-yl)-pyrimidin-4-yl]-amide]	< 500
CC[C@H](C)S(=O)(=O)Nc1cc(-c2ccc(=O)n(C)c2)nc(Oc2c(F)ccc(C)c2F)n1 [Example 225, (S)-N-(2-(2,6-difluoro-3-methylphenoxy)-6-(1-methyl-6-oxo-1,6-dihydropyridin-3-yl)pyrimidin-4-yl)butane-2-sulfonamide]	< 500
Cc1cccc(Cl)c1Oc1nc(-c2cc(C)c(=O)n(C)c2)cc(S(C)(=O)=O)n1 [Example 133, 5-[2-(2-Chloro-6-methyl-phenoxy)-6-methanesulfonyl-pyrimidin-4-yl]-1,3-dimethyl-1H-pyridin-2-one]	< 500
CCC(F)(F)S(=O)(=O)Nc1cc(-c2ccc(=O)n(C)c2)nc(Oc2c(C)cccc2F)n1 [Example 166, 1,1-Difluoro-propane-1-sulfonic acid [2-(2-fluoro-6-methyl-phenoxy)-6-(1-methyl-6-oxo-1,6-dihydro-pyridin-3-yl)-pyrimidin-4-yl]-amide]	< 500
Cc1ccc(C#N)cc1Oc1nc(NS(=O)(=O)C(C)C)cc(-c2cc(C)c(=O)n(C)c2)n1 [Example 7, Propane-2-sulfonic acid [2-(5-cyano-2-methyl-phenoxy)-6-(1,5-dimethyl-6-oxo-1,6-dihydro-pyridin-3-yl)-pyrimidin-4-yl]-amide]	< 500
CC[C@H](C)S(=O)(=O)Nc1cc(-c2ccc(=O)n(C)c2)nc(Oc2c(C)cccc2C2CC2)n1 [Example 211, Butane-(2S)-sulfonic acid [2-(2-cylcopropyl-6-methyl-phenoxy)-6-(1-methyl-6-oxo-1,6-dihydro-pyridin-3-yl)-pyrimidin-4-yl]-amide]	< 500
Cc1nn(C)c(C)c1Oc1nc(NS(=O)(=O)C(C)C)cc(-c2ccc(=O)n(C)c2)n1 [Example 125, Propane-2-sulfonic acid [6-(1-methyl-6-oxo-1,6-dihydro-pyridin-3-yl)-2-(1,3,5-trimethyl-1H-pyrazol-4-yloxy)-pyrimidin-4-yl]-amide]	< 500
